Measurements: US10981858B2, “Dendrimer and formulations thereof” (Priostar Pty Ltd, priority 2015, dated 2021)
“Also recorded” adds a separate entry of the source.

Key:
Format in all cases: physicochemical
Cloud point studies = conditions: 1 gm. dendrimer solution (70:30 w/w dendrimer:Diethylene Glycol) in 99 gm. of 10% NaOH solution
Procedure: 1 gm. of dendrimer solution (70:30 w/w dendrimer [Compound 1 or Compound 4]:Diethylene Glycol) was dissolved in 99 gm. of 10% NaOH solution in Deionized water and heated until hazy. Temperature of the solution was measured using calibrated thermometer.

[1] = Tebuconazole 600 SC formulation viscosity (Table 8); conditions: dendrimer 0.7%
Procedure: (§1) Formulations were prepared by mixing water, surfactant, dispersing agent, wetting agent and antifoam together then gradually adding active. High shear mix for 20-30 minutes to disperse formulation ingredients in water before adding the active and mixing until homogeneous. The mixture was milled on a Dyno bead mill (1 m/s) with 0.4-0.6 mm beads at max. 40° C. until particle size was <4 um. Dendrimer compound (in DEG) was added and stirred for 20 minutes. Thickener and antimicrobial was then added and stirred for 20 minutes. Formulations were deaerated by sonication.

[2] = Tebuconazole 600 SC hard water testing: suspensibility, column thinning, sedimentation; conditions: 2 ml Tebuconazole 600 SC, dendrimer 0.7%, in 98 ml 342 ppm hard water, 30° C., 24 hours
Procedure: as §1
98 ml of 342 ppm hard water (prepared as per CIPAC method MT18) was heated to 30° C. before adding 2 ml. of Tebuconazole 600 SC formulation. Temperature was maintained at 30° C. for 24 hours and formulation characteristics were studied for suspension stability, wetting, column thinning/separation and sedimentation.

[3] = Dynamic viscosity of aqueous dendrimer solution (Brookfield); conditions: aqueous solution 7% dendrimer and 3% DEG, ambient temperature, spindle no. 63 at 50 rpm
Procedure: 50 g aqueous solution of dendrimer (7% dendrimer and 3% DEG) was prepared in deionized water in a beaker, and subjected to dynamic viscosity measurement using Brookfield viscometer at ambient temperature. Viscosity studies were conducted using spindle no. 63 at 50 rpm. It was observed that viscosity of Compound-1 solution was 1.8 cps and Compound-4 solution was 0.6 cps.

[4] = Water value of dendrimers with solvent (Solvesso 200); conditions: 50 g aqueous solution, 7% dendrimer and 3% DEG; until hazy
Procedure: 50 g Aqueous solution of Dendrimer were prepared containing 7% dendrimer and 3% Diethylene glycol (DEG) by weight. Solvesso 200 (C10-13 aromatic hydrocarbon solvent) was added dropwise under stirring until the solution became hazy. Weight of Solvesso added was recorded.

[5] = 2,4-D/dendrimer hard water testing (clarity, sedimentation); conditions: 30° C.; for Appearance at Addition / Appearance/Sedimentation After 24 Hrs.: 2,4-D Amine in 342 ppm hard water
Procedure: 342 ppm hard water was prepared as per CIPAC method MT18. The hard water was heated to 30° C. […]

[6] = 2,4-D/dendrimer formulation stability study (crystallisation at 0° C.); conditions: for Crystallisation After 7 Days at 0° C. With Seeding: 2,4-D Amine 625 g/l seeded with 2,4-D Amine salt; for Crystallisation After 7 Days at 0° C.: without seeding
Procedure: 20 ml of 2,4-D Amine(2,4-D 625 g/l market sample, Rygel, Adama Australia) was transferred to 25 ml clear vials and dendrimer added (with or without 30% Dithethylene Glycol). Caps were tightened to ensure no moisture entered the vials. Formulations were placed in a freezer at 0° C. […] In a related experiment, formulations were prepared with seeding with 2,4-D Amine salt (Shanghai Biochemical Sci. Ltd., purity 98 in order to hasten rate of crystallisation. The results are provided in Table 2.

[7] = Tebuconazole 600 SC wetting study in hard water; conditions: one drop Tebuconazole 600 SC, dendrimer 0.7%, in 342 ppm hard water at 30° C.
Procedure: as §1
Wetting studies were conducted by placing one drop of Tebuconazole 600 SC formulation in 342 ppm hard water at 30° C. and recording the time when all the formulation particles were wet and dispersed in water.

[8] = Imidacloprid 700SC formulation viscosity and stability; conditions: Imidacloprid 700 g/L formulation, dendrimer 20 g/L
Procedure: Imidacloprid formulations were prepared by using high shear mixing to disperse formulation ingredients in 75% of the required water before adding the active and mixing until homogeneous. The mixture was milled on a bead mill (4 m/s) at 30-35° C. for 1 complete pass. Thickener, glycerine and residual water were then added under high shear mixing. Formulations were tested for viscosity (using a Brookfield LV viscometer) low temperature stability (0 C for 7 days) and RT stability. Many other dendrimers containing formulations prepared either solidified on milling or pre-milling Compound 4 reduced viscosity and provided greater formulation stability.

[9] = Solubilization of Methylated seed oil (MSO) in aqueous LA-9 solution; conditions: for Quantity MSO added to 10% LA-9 solution: 50 g, until hazy
Procedure: 10% aqueous solution of Ethoxylated Lauryl alcohol-9 mole (water soluble surfactant) was prepared in Deionized water (5 g in 45 ml). Dendrimer compounds 1 and 4 were prepared 70:30 w/w in Diethylene glycol (DEG). The 10% Ethoxylated Lauryl alcohol-9 M (LA-9) solution was combined with dendrimer DEG solution at 80:20 and 60:40 w/w (total weight of 50 g).
Methylated seed oil (MSO) (STEPOSOL-ROE-W, canola oil methyl ester, Stepan) was added dropwise under stirring to the 10% LA-9 solution (with or without dendimers), until the solution became hazy. Weight of MSO added was recorded.

[10] = 2,4-D Amine 625 g/l, dendrimer 2%
[11] = 2,4-D Amine 625 g/l, dendrimer 5%
[12] = 2,4-D Amine 625 g/l, dendrimer 10%

Cloud point (temperature at which solution turned hazy) (Cloud point studies): greater than 80 °C
Viscosity 0 C. ([1]; 0 C.): 744
Viscosity 54 C. ([1]; 54 C.): 730
Viscosity RT ([1]; RT): 730 cP
Suspensibility: Sediment [2]: <0.5 mL⁻¹
Suspensibility: nature of sediment [2]: Compact
Suspensibility: Column Thinning ([2]; top thinning): No
Dynamic viscosity [3]: 0.6 cps
Quantity Solvesso 200 added [4]: 2.15 g
Appearance at Addition ([5]; dendrimer 1.4% (w/w), 0.6% DEG): Clear
Appearance/Sedimentation After 24 Hrs. ([5]; dendrimer 1.4% (w/w), 0.6% DEG): Clear
Appearance at Addition ([5]; dendrimer 2% (w/w)): Clear
Appearance/Sedimentation After 24 Hrs. ([5]; dendrimer 2% (w/w)): Clear
Appearance at Addition ([5]; dendrimer 3.5% (w/w), 1.5% DEG): Clear
Appearance/Sedimentation After 24 Hrs. ([5]; dendrimer 3.5% (w/w), 1.5% DEG): Clear
Appearance at Addition ([5]; dendrimer 5% (w/w)): Clear
Appearance/Sedimentation After 24 Hrs. ([5]; dendrimer 5% (w/w)): Clear
Appearance at Addition ([5]; dendrimer 7% (w/w), 3% DEG): Clear
Appearance/Sedimentation After 24 Hrs. ([5]; dendrimer 7% (w/w), 3% DEG): Clear
Appearance at Addition ([5]; dendrimer 10% (w/w)): Clear
Appearance/Sedimentation After 24 Hrs. ([5]; dendrimer 10% (w/w)): Clear
Appearance of 2,4-D solutions in hard water ([5]; all concentrations tested (from 1.4 to 10%), 342 ppm hard water, 24 hours): clear
Crystallisation After 7 Days at 0° C. With Seeding ([6]; dendrimer 1.4%, Diethylene Glycol 0.6%): Crystallised
Crystallisation After 7 Days at 0° C. With Seeding ([6]; dendrimer 2%): Crystallised
Crystallisation After 7 Days at 0° C. With Seeding ([6]; dendrimer 3.5%, Diethylene Glycol 1.5%): Crystallised
Crystallisation After 7 Days at 0° C. With Seeding ([6]; dendrimer 5%): Crystallised
Crystallisation at 0° C. without seeding ([6]; 2,4-D Amine 625 g/l, all levels of dendrimer tested): did not result in crystallisation
Crystallisation After 14 Days at 0° C. ([6]; 2,4-D Amine 625 g/l, dendrimer 1.4%, Diethylene Glycol 0.6%): Crystallised
Crystallisation After 14 Days at 0° C. [6, 10]: Crystallised
Crystallisation After 14 Days at 0° C. ([6]; 2,4-D Amine 625 g/l, dendrimer 3.5%, Diethylene Glycol 1.5%): No
Crystallisation After 14 Days at 0° C. [6, 11]: Crystallised
Crystallisation After 14 Days at 0° C. ([6]; 2,4-D Amine 625 g/l, dendrimer 7%, Diethylene Glycol 3%): No
Crystallisation After 14 Days at 0° C. [6, 12]: No
Crystallisation After 7 Days at 0° C. [6, 10]: No
Crystallisation After 7 Days at 0° C. [6, 11]: No
Crystallisation After 7 Days at 0° C. [6, 12]: No
Wetting [7]: 9.9 s
Observation: sediment at 0 C. ([8]; 0 C for 7 days): No sediment at 0 C.,
Viscosity (cP) 0 C. ([8]; 0 C., Brookfield LV viscometer): 552 cP
Observation: sediment at RT ([8]; RT): fluffy, low sediment at RT
Viscosity (cP) RT ([8]; RT, Brookfield LV viscometer): 574 cP
Increase in solubilisation of Methylated seed oil in aqueous solution [9]: 110%
Quantity MSO added to 10% LA-9 solution ([9]; ratio LA-9 solution:dendrimer/DEG solution 60:40 (w/w), 28% dendrimer (w/w)): 0.81 g
Quantity MSO added to 10% LA-9 solution ([9]; ratio LA-9 solution:dendrimer/DEG solution 80:20 (w/w), 14% dendrimer (w/w)): 0.92 g
SMILES: OCCN(CCO)CC(O)COCC(COCC(O)CN(CCO)CCO)(COCC(O)CN(CCO)CCO)COCC(COCC(O)CN(CCO)CCO)(COCC(O)CN(CCO)CCO)COCC(O)CN(CCO)CCO (stereo not shown) [Compound 4, 9,9′-(Oxybis(methylene))bis(9-((3-(bis(2-hydroxyethyl)amino)-2-hydroxypropoxy)methyl)-3,15-bis(2-hydroxyethyl)-7,11-dioxa-3,15-diazaheptadecane-1,5,13,17-tetraol)]
Crystallisation After 7 Days at 0° C. With Seeding ([6]; dendrimer 7%, Diethylene Glycol 3%): remained stable; also recorded: No, Clear
Crystallisation After 7 Days at 0° C. With Seeding ([6]; dendrimer 10%): remained stable; also recorded: No, Clear
